Experimental data reported in US20160031836A1, “BIOMARKER” (Novartis AG, priority 2013, published 2016).

Legend:
[1] = system: binding of HSF1 to HSP70 or BAG3 promoter; assay: ChIP with HSF1 antibody, quantitative real-time PCR; assay type: cell-based, human; conditions: A375 cells, AUY922 100 nM, one hour
Experimental: shHSF1 transduced A375 cells were treated with or without Doxycycline for 3 days and were further treated with AUY922 100 nM for 1 h. Chromatin was immunoprecipitated with anti-MLL1 antibody and amplified by quantitative real-time PCR using primers around HSE element of HSP70 (A) or BAG3 (B) gene promoter and MLL1 binding site of MESI1 (C) promoter.
To examine the recruitment of MLL1 to the HSF1-modulated gene promoter, we performed chromatin immunoprecipitation (ChIP) with A375 cells transduced with control or shMLL1 and treated or untreated with AUY922 for 1 h. Chromatin from those cells was sonicated to obtain fragments below 500 bp and immunoprecipitated using polyclonal against HSF1 and MLL1. Quantitative real-time PCR analysis was carried out with primer specific for the HSP70 and BAG3 encompassing the HSE element. MLL1 binding site of MESI1 was used as a control. […] In contrast, the bindings were not detected in A375 cells with inducible HSF1 knockdown (Supplement FIG. 3). A significant of MLL1 occupancy of the HSP70 and BAG3 gene promoter is also observed at one hour of AUY922 treatment (FIGS. 2C and D). In contrast, the binding of MLL1 to MESI promoter was not detected (FIG. 2E). […]

MLL1+/+ MEFs [2] = assay: Microscopic analysis and dose response (CTG) in MEFs; assay type: cell-based, mouse
Experimental: (§1) A. Cell colony formation assay of MLL1 knockdown with AUY922 treatment in A375 cells. 5000 shNTC or shMLL1 A375 cells were seeded in six wells plate and were treated or untreated with Doxycycline for 5 days, then followed by compound treatment for 6 days. B. Cell colony formation assay of MLL1 knockdown with AUY922 treatment in A2058 cells. 5000 shNTC or shMLL1 A2058 cells were seeded in six wells plate and were treated or untreated with Doxycycline for 5 days, then followed by compound treatment for 6 days. C. Western blotting analysis of tumor samples. Tumor samples were collected at the end of studies and western blotting analysis of MLL1 and GAPDH were performed. D. Real-time PCR analysis of tumor samples. Tumor samples were collected at the end of studies and total mRNA was collected and Real-time PCR was performed. E. The combinational effect of MLL1 knockdown and HSP90 inhibitor in A375 xenograft mouse model. Tumor growth rate of A375 cells expressing inducible control shRNA or shRNA against MLL1 under Doxycycline and/or HSP990 were compared at different time points. […] The percentage of S+G2M cells were determined by PI staining. […] The apoptotic cells represented by 7AAD+AnnexinV+ were determined by FACS. […] Relative cell growth was measured by CTG. […] The apoptotic cells represented by 7AAD+AnnexinV+ were determined by FACS.

MLL1−/− MEFs [3] = assay: as above; assay type: cell-based, mouse; conditions: after 48 h treatment
Experimental: as §1

[4] = system: other leukemia cell lines; assay: Cell proliferation by CellTiter-Glo, human leukemia cells; assay type: cell-based; conditions: 72 h
Experimental: (§2) Eight human leukemia cells with or without MLL1 translocation were treated with AUY922 for 72 h and cell proliferation rate were measured by CellTiter-Glo. IC95 were used to estimate the cell response to HSP90 inhibition. Supplementary Table. S1: 35 Genes were Identified as Modulators of Cell Response to HSP90 Inhibition by siRNA Screening

NOMO = assay: as above; assay type: cell-based; conditions: 72 h
Experimental: as §2

RS(4,11) = assay: as above; assay type: cell-based; conditions: 72 h
Experimental: as §2

MOLM13 = assay: as above; assay type: cell-based; conditions: MOLM13, 72 h
Experimental: as §2

human primary BALL cells = assay: Dose response in human primary BALL cells (CellTiter-Glo); assay type: cell-based; conditions: 48 h
Experimental: A. The percentage of human leukemia cells in bone marrow of recipient mice transplanted with human primary leukemia cells. The human cells represented by human CD45+ were determined by FACS. B. Real-time PCR analysis of MLL1 expression among different human primary leukemia cell. C. Dose response of AUY922 in human primary BALL cells. Human primary BALL cells were treated with DMSO or serial dilutions of AUY922 for 48 h. Relative cell growth was measured by CellTiter-Glo. D. JURKAT, SEM, RS(4,11) and MOLM13 were treated for 72 h with different doses of AUY922 and/or NVP-JAE067, inhibition of cell viability was measured using the CellTiter-Glo assay. E. Chalice software was used to calculate excess inhibition over Loewe additivity for each AUY922 and NVP-JAE067 dose combination.
To investigate whether MLL1 expression is different in primary human cancer cells, we examined the expression of MLL1 in human B acute lymphoblastic leukemia samples. The primary human BALL cells were transplanted into immune deficient mice and bone marrow cells were collected from recipient mice until blood tumor burden is higher than 70% by FACS analysis. […] We next evaluated the efficacy of AUY922 on those human leukemia cells. […] We next tested the combination effect of AUY922 and DOT1L inhibitor NVP-JAE067 on human leukemia cells. […] Taken together, those result indicated human leukemia cells with MLL1 low expression may be more sensitive to HSP90 inhibition and the combination of HSP90 inhibitor and DOT1L inhibitor may be a good strategy for human leukemia cells harboring MLL1 translocation.

MLL1+/+ MEFs [5] = assay: Cell apoptosis analysis (7AAD+AnnexinV+, FACS) in MEFs; assay type: cell-based, mouse; conditions: AUY922 100 nM, 48 h
Experimental: as §1

MLL1−/− MEFs [6] = assay: as above; assay type: cell-based, mouse; conditions: AUY922 100 nM, 48 h
Experimental: as §1

A375, A2058 and HCT116 = assay: Cell colony formation assay with MLL1 knockdown; assay type: cell-based, human; conditions: Doxycycline 5 days, compound 6 days
Experimental: A. Cell colony formation assay of MLL1 knockdown with AUY922 treatment in A375 cells. 5000 shNTC or shMLL1 A375 cells were seeded in six wells plate and were treated or untreated with Doxycycline for 5 days, then followed by compound treatment for 6 days. B. Cell colony formation assay of MLL1 knockdown with AUY922 treatment in A2058 cells. 5000 shNTC or shMLL1 A2058 cells were seeded in six wells plate and were treated or untreated with Doxycycline for 5 days, then followed by compound treatment for 6 days. C. Western blotting analysis of tumor samples. Tumor samples were collected at the end of studies and western blotting analysis of MLL1 and GAPDH were performed. D. Real-time PCR analysis of tumor samples. Tumor samples were collected at the end of studies and total mRNA was collected and Real-time PCR was performed. E. The combinational effect of MLL1 knockdown and HSP90 inhibitor in A375 xenograft mouse model. Tumor growth rate of A375 cells expressing inducible control shRNA or shRNA against MLL1 under Doxycycline and/or HSP990 were compared at different time points. […] The percentage of S+G2M cells were determined by PI staining. […] The apoptotic cells represented by 7AAD+AnnexinV+ were determined by FACS. […] Relative cell growth was measured by CTG. […] The apoptotic cells represented by 7AAD+AnnexinV+ were determined by FACS. […]

A375 xenograft = A375 xenograft mouse model, tumor growth; assay type: in vivo
SEM xenograft = SEM xenograft mouse model, tumor growth; assay type: in vivo; conditions: 10 mg/kg PO, qw
Experimental: (§3) A. Real-time PCR analysis of different human leukemia cell lines under HSP90 inhibitor treatment. Human leukemia cells were cultured and treated or untreated with AUY922 for 48 h. Then, total mRNA was collected and Real-time PCR was performed. B. Cell apoptosis analysis of MLL1 low expression or MLL1 high expression human leukemia cells with AUY922 treatment. Human leukemia cells were treated or untreated with AUY922 100 nM for 48 h. The apoptotic cells represented by 7AAD+AnnexinV+ were determined by FACS. C. The effect of HSP90 inhibitor in SEM and MOLM13 xenograft mouse model. Tumor growth rate of SEM and MOLM13 under HSP990 treatment were compared at different time points. […] SEM and MOLM13 cells were treated or untreated with AUY922 100 nM for 3 h. Total RNA were collected and microarray was performed.
(§4) Mice were maintained and handled in accordance with Novartis Biomedical Research Animal Care and Use Committee protocols and regulations. A375 with Tet-inducible shRNA against MLL1 were cultured in DMEM supplemented with 10% Tet-approved FBS. Mice (6-8 wk old, n=8) were inoculated s.c. with 1×10^6 cells in the right dorsal axillary region. Tumor volume was measured by calipering in two dimensions and calculated as (length×width2)/2. […] Data were expressed as mean±SEM, and differences were considered statistically significant at P<0.05 by Student t test.

MOLM13 xenograft = MOLM13 xenograft mouse model, tumor growth; assay type: in vivo; conditions: 10 mg/kg PO, qw
Experimental: as §3, §4

A375 cells = assay: Cell colony formation assay with MLL1 knockdown, NVP-LGX818; assay type: cell-based, human; conditions: shMLL1
Experimental: Supplementary FIG. 5: Cell colony formation assay of HSF1 knockdown or MLL1 knockdown with NVP-LGX818 treatment in A375 cells 5000 shNTC, shHSF1 or shMLL1 A375 cells were seeded in six wells plate and were treated or untreated with Doxycycline for 5 days, then followed by compound treatment for 6 days.

CCNC(=O)c1noc(-c2cc(C(C)C)c(O)cc2O)c1-c1ccc(CN2CCOCC2)cc1 [AUY922, 5-(2,4-Dihydroxy-5-isopropyl-phenyl)-4-(4-morpholin-4-ylmethyl-phenyl)-isoxazole-3-carboxylic acid ethylamide]
binding of HSF1 to HSP70 or BAG3 promoter (ChIP) [1]: increased about ten times
effect on proliferation / killing of cells (MLL1+/+ MEFs [2]): inhibits the proliferation rate of MEFs, but didn't kill those cells
cells killed (MLL1−/− MEFs [3]): more than 90%
IC95 [4]: about 1000 nM
IC95 (NOMO): about 100 nM
IC95 (RS(4,11)): about 100 nM
IC95 (MOLM13): about 100 nM
response to treatment (relative cell growth) (human primary BALL cells; P1 leukemia cells with high MLL1 expression): didn't response
response to treatment (relative cell growth) (human primary BALL cells; P4 leukemia cells with low MLL1 expression): good response
response to treatment (relative cell growth) (human primary BALL cells; other two human leukemia samples): a certain response
cells induced apoptosis (MLL1+/+ MEFs [5]): 30%
cells induced apoptosis (MLL1−/− MEFs [6]): more than 80%
sensitivity in colony formation on induction of MLL1 shRNA (A375, A2058 and HCT116): dramatically sensitivity

COc1cccc(-c2cc(F)ccc2[C@H]2Cc3nc(N)nc(C)c3C(=O)N2)n1 [HSP990, (R)-2-amino-7-[4-fluoro-2-(6-methyoxy-pyridin-2-yl)-phenyl]-4-methyl-7,8-dihydro-6H-pyrido[4,3-d]pyrimidin-5-one]
tumor growth outcome (A375 xenograft; HSF1 knockdown & HSP990 combination): tumor stasis
inhibited tumor growth, T/C (A375 xenograft; HSP990 alone, 10 mg/kg PO, qw): 50 % T/C
inhibited tumor growth, T/C (SEM xenograft): 30 % T/C
inhibited tumor growth, T/C (MOLM13 xenograft): 60 % T/C

COC(=O)N[C@@H](C)CNc1nccc(-c2cn(C(C)C)nc2-c2cc(Cl)cc(NS(C)(=O)=O)c2F)n1 [NVP-LGX818]
combinational effect with MLL1 knockdown, colony formation (A375 cells): does not have a combinational effect
